In PubChem BioAssay (NCI) one finds TGI data, which are given here for eight molecules.

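Each compound was tested at five concentrations against cells in 96-well plates for 48 hours. The concentration for full growth arrest is given as TGI.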 *1 amine or outer side, *2 acyl side, *3 side chain or, on linkers, in order; H or OH if unused. Where a SMILES comes first, the peptide text is derived from it. [ ]: non-standard residue; d: D form. The star is where a group is joined. ξ: configuration not given here. NMeY = CN[C@@H](Cc1ccc(O)cc1)C(=O)O; Ethylenediamine = C(CN[*:2])N[*:1]; ξNMeL = CNC(CC(C)C)C(=O)O; Cbz = O=C(OCc1ccccc1)*; Lac = C[C@H](O)C(=O)O; ξA = CC(N)C(=O)O

Common to all, as to test: inhibition of tumour cell growth, NCI panel, 48 h
In assay [1] the test system is BT-549 breast.
The subject of assay [2] is TK-10 renal.
Assay [3] has as its system HCC-2998 colon.
Assay [4] concerns UACC-62 melanoma.
Assay [5] concerns SW-620 colon.
In assay [6] the test system is SNB-75 CNS.
For assay [7], the system named is OVCAR-8 ovarian.
Assay [8] relates to MCF7 breast.
In assay [9] the test system is M14 melanoma.
For assay [10], the system named is NCI-H460 lung.
Assay [11] concerns SR leukemia.
In assay [12] the test system is A549 NSCLC.
In assay [13] the test system is DU-145 prostate.
Assay [14] concerns T-47D breast.
In assay [15] the test system is HCT-15 colon.
The subject of assay [16] is SNB-19 CNS.
Assay [17] deals with SK-OV-3 ovarian.

As for `NC(=O)CN1CC(C2=C(O)CN(CC(N)=O)C2=O)=CC1=O`, the TGI in [1], in [2], in assay [3], in assay [4], in assay [5] and in [6] was above 100 µM each time. Also, the TGI in [7], in [8], in assay [9], in assay [10], in assay [11] and in assay [12] was above 100 µM in each case. Also, the TGI in assay [13], in assay [14], in [15], in assay [16] and in assay [17] was above 100 µM each time.
Regarding `Cn1c(=O)c2sc3c4sc5c(=O)n(C)c6ccccc6c5c4sc3c2c2ccccc21`, the TGI in assay [1], in assay [2], in assay [3], in assay [4], in assay [5] and in [6] was above 100 µM each time. The TGI in [7], in assay [8], in assay [9], in assay [10], in assay [11] and in assay [12] was above 100 µM each time. Also, the TGI in assay [13], in assay [14], in assay [15], in [16] and in assay [17] was above 100 µM in each case.
`COc1cccc2c1C1(O)C2CCCCCCCCCC12OCCCO2` (stereo unspecified): the TGI was above 100 µM in assay [1]; above 100 µM in assay [2]; above 100 µM in assay [3]; above 100 µM in assay [4]; above 100 µM in assay [5]; above 91.8 µM in assay [6]. Besides, the TGI is above 100 µM in assay [7]; above 100 µM in assay [8]; above 100 µM in assay [9]; above 59.5 µM in assay [10]; 35.6 µM in assay [11]; above 100 µM in assay [12]. The TGI in [13], in assay [14], in assay [15], in assay [16] and in assay [17] was above 100 µM each time.
Turning to `CC(=O)NC1C(OC(C)C(=O)NC(C(=O)NC(CCC(=O)NCCCNC2c3ccccc3Nc3cccc([N+](=O)[O-])c32)C(N)=O)C(C)C)C(O)C(CO)OC1(C)OCc1ccccc1` (stereo unspecified), the TGI in assay [1] was determined as 4.1 µM; in [2], 0.695 µM; in assay [3], 2.2 µM; in assay [4], 2.1 µM; in assay [5], 1.81 µM; in [6], 4.34 µM. For the same molecule, the TGI was 3.28 µM in assay [7]; 2.85 µM in [8]; 12.2 µM in assay [9]; 0.405 µM in assay [10]; 0.634 µM in [11]; 1.94 µM in [12]. The TGI in assay [13] is 0.817 µM; in [14], 4.16 µM; in assay [15] it was 1.97 µM; in assay [16], 3.67 µM; in assay [17], 3.33 µM.
With `COc1ccc(C[C@@H](C(=O)NCCNC(=O)C(CC(C)C)N(C)C(=O)[C@@H]2CCCN2C(=O)[C@H](C)O)N(C)C(=O)[C@@H]2CCCN2C(=O)[C@H](CC(C)C)NC(=O)C(C)NC(=O)OCc2ccccc2)cc1` (stereo partly specified) (Cbz-[ξA]LP[NMeY](Me)-{Ethylenediamine-ξNMeL-Pro-Lac}), the TGI in [1], in assay [2], in [3], in assay [4], in assay [5] and in [6] was above 100 µM in each case. In addition, the TGI in [7], in assay [8], in [9], in [10], in assay [11] and in assay [12] was above 100 µM throughout. Besides, the TGI in [13], in [14], in assay [15], in [16] and in [17] was above 100 µM in each case.
Turning to `Cc1cc(S(=O)(=O)Nc2nnc3c4ccccc4cnn23)c(S)cc1Cl`, the TGI is above 92.3 µM in [1]; above 100 µM in assay [2]; above 100 µM in assay [3]; above 100 µM in [4]; above 100 µM in assay [5]; above 100 µM in assay [6]. Moreover, the TGI was above 100 µM in assay [7]; above 100 µM in assay [8]; above 100 µM in assay [9]; above 85.1 µM in [10]; above 100 µM in assay [11]; above 100 µM in [12]. Besides, the TGI was above 100 µM in assay [13]; above 100 µM in assay [14]; above 100 µM in assay [15]; above 88.9 µM in assay [16]; above 92.7 µM in assay [17].
Turning to `O=[N+]([O-])c1ccc(-n2nc3ccc4c(no[n+]4[O-])c3[n+]2[O-])c([N+](=O)[O-])c1`, the TGI in [1] turned out to be 9.49 µM; in [2], 6.88 µM; in [3] it was 8.77 µM; in assay [4], 7.72 µM; in assay [5], 5.4 µM; in assay [6] it was 23.5 µM. The TGI in assay [7] was 6.05 µM; in assay [8], 3.98 µM; in assay [9], 3.29 µM; in [10], 40.6 µM; in assay [11] it was above 21.4 µM; in [12] it was 31.4 µM. For the same molecule, the TGI was found to be 12.6 µM in [13]; 6.63 µM in assay [14]; 7.75 µM in assay [15]; 16.5 µM in assay [16]; 23 µM in [17].
For the molecule `COC1CC(OC2CCC3(C)C(=CCC4C3C(OC(C)=O)C(OC(=O)CC(C)C)C3(C)C(C(C)=O)CCC43O)C2)OC(C)C1OC1CC(OC)C(OC2CC(OC)C(OC3OC(C)C(O)C(OC)C3O)C(C)O2)C(C)O1` (stereo unspecified), the TGI in [1] was 69.6 µM; in assay [2], above 100 µM; in assay [3] it was 70.3 µM; in assay [4], above 100 µM; in [5], 94.7 µM; in assay [6] it was 70 µM. For the same molecule, the TGI is above 100 µM in assay [7]; 93.6 µM in assay [8]; above 100 µM in assay [9]; above 100 µM in assay [10]; 62 µM in assay [11]; above 100 µM in assay [12]. The TGI in [13], in [14], in [15], in assay [16] and in assay [17] was above 100 µM throughout.
